≈ marks a conversion by molar mass, not a printed value. Non-standard residues stand in square brackets, D forms with d. Residues, ends and D or L forms follow the SMILES beside them. *: point of attachment. Dolaproine = CO[C@@H]([C@@H]1CCCN1)[C@@H](C)C(=O)O; Hexanoyl(6-maleimido) = O=C1C=CC(=O)N1CCCCCC(=O)*; Dil = CC[C@H](C)[C@H](NC)[C@@H](CC(=O)O)OC; NMeV = CN[C@H](C(=O)O)C(C)C
Key:
SKOV-3 = assay: Cytotoxicity of Auristatin-Peptide-anti-LIV-1 conjugates on LIV-1 positive cells; format: cell-based; details: Table 11, ~4 drugs per antibody
Experimental: (§1) Following the procedure described as Examples 57 and 58, the activities of Auristatin-Peptide-cAC10 conjugates were evaluated on CD30^+ cells, such as Karpas 299, L428, and L540cy. The activities of Auristatin-Peptide-hBU12 conjugates were evaluated on CD19^+ cells such as Ramos, SUDHL-4, and ARH-77. The activities of Auristatin-Peptide-anti-LIV-1 conjugates were evaluated on LIV-1 positive cell lines MCF-7 and SKOV-3. The activities of Auristatin-Peptide-BR96 conjugates were evaluated on Le^y positive cells H3396, RCA, and L2987. All conjugates contain approximately 4 drugs per antibody.

MCF-7 = assay: as above; format: cell-based; details: Table 11, ~4 drugs per antibody
Experimental: as §1

L540cy = assay: Cytotoxicity of Auristatin-Peptide-cAC10 conjugates on CD30+ cells; format: cell-based, human; details: Table 11, ~4 drugs per antibody
Experimental: (§2) Following the procedure described in Example 57, Auristatin-Dipeptide-cAC10 antibody conjugates were evaluated on CD30+ positive cell lines, Karpas 299, L428 and L540cy. In addition, a control conjugate, cAC10-vc-PABC-MMAF, was used. […] The conjugates contain approximately 4 drugs per antibody.
as §1

Karpas 299 = assay: as above; format: cell-based, human; details: Table 11, ~4 drugs per antibody
Experimental: as §2, §1

Ramos = assay: Cytotoxicity of Auristatin-Peptide-hBU12 conjugates on CD19+ cells; format: cell-based; details: Table 11, ~4 drugs per antibody
Experimental: as §1

SUDHL-4 = assay: as above; format: cell-based; details: Table 11, ~4 drugs per antibody
Experimental: as §1

ARH-77 = assay: as above; format: cell-based; details: Table 11, ~4 drugs per antibody
Experimental: as §1

RCA = assay: Cytotoxicity of Auristatin-Peptide-BR96 conjugates on Le^y positive cells; format: cell-based; details: Table 11, ~4 drugs per antibody
Experimental: as §1

H3396 = assay: as above; format: cell-based; details: Table 11, ~4 drugs per antibody
Experimental: as §1

L2987 = assay: as above; format: cell-based; details: Table 11, ~4 drugs per antibody
Experimental: as §1

L428 [1] = assay: Cytotoxicity of Auristatin-Peptide-cAC10 conjugates on CD30+ cells; format: cell-based; details: Table 11, ~4 drugs per antibody
Experimental: as §2, §1

[2] = test system: 786-O (renal cell) xenografts; details: mouse, ip
Experimental: The efficacy of AF-Dipeptide-h1F6 conjugates were evaluated in 786-O (renal cell) xenografts. AF-Dipeptide-h1F6 conjugates with an average of 4 drug moieties per antibody were used. 786-O cells were implanted subcutaneously into immunodeficient mice (5×10^6 cells per mouse). Tumor volumes are calculated using the formula (0.5×L×W^2) where L and W are the longer and shorter of two bidirectional measurements.
In a second study, the efficacies of additional Auristatin-Dipeptide-h1F6 conjugates were evaluated in 786-O (renal cell) xenografts. Auristatin-Dipeptide-h1F6 conjugates with an average of 4 drug moieties per antibody were used. 786-O cells were implanted subcutaneously into immunodeficient mice (5×10^6 cells per mouse). Tumor volumes are calculated using the formula (0.5×L×W^2), where L and W are the longer and shorter of two bidirectional measurements.

[3] = test system: CD70+ positive cell lines; details: h1F6 conjugates, ~4 drugs/Ab
Experimental: Cytotoxicity assays are usually carried out for 96 hours after addition of test compounds. Fifty μl of resazurin dye may be added to each well during the last 4 to 6 hours of the incubation to assess viable cells at the end of culture. Dye reduction can be determined by fluorescence spectrometry using the excitation and emission wavelengths of 535 nm and 590 nm, respectively. For analysis, the extent of resazurin reduction by the treated cells can be compared to that of the untreated control cells.

L428 [4] = assay: Cytotoxicity of Auristatin-Peptide-h1F6 conjugates, resazurin assay; format: cell-based
Source text: (§3) The conjugates contain approximately 4 drugs per antibody.

Caki-1 = assay: as above; format: cell-based
Source text: as §3

U251 = assay: as above; format: cell-based; details: Table 4, ~4 drugs/Ab
Source text: as §3

HCT-116 (CD70−) = assay: Cytotoxicity of Auristatin-Peptide-h1F6 conjugates, CD70- control cell line; format: cell-based
Source text: as §3

786-O = assay: Cytotoxicity of Auristatin-Peptide-h1F6 conjugates, resazurin assay; format: cell-based, human
Source text: as §3

Caki-2 = assay: as above; format: cell-based
Experimental: as §3
Following the procedure described as Examples 57 and 58, Auristatin-Peptide-h1F6 conjugates were evaluated on CD70^+ cell, such as 786-O, Caki-1, Caki-2, and L428. Conjugates contain approximately 4 drugs per antibody.

[5] = test system: L540cy Hodgkin's lymphoma subcutaneous model; assay: In vivo efficacy of cAC10 conjugates in lymphoma xenograft model; set-up: species or system mouse; details: FIG. 17, q4d×3 at 1 mg/kg, SCID mice
Experimental: The efficacy of selected Auristatin-Dipeptide-cAC10 conjugates having Stretcher units with aryl or alkyl maleimides were evaluated in L540cy Hodgkin's lymphoma subcutaneous model. Auristatin-Dipeptide-cAC10 conjugates with average of 4 drug moieties per antibody were used. L540cy cells were implanted subcutaneously into immunodeficient SCID mice (5×10^6 cells per mouse). […] Treatment was initiated when average size of tumors reached 100 mm^3. The treatment schedule was q4d×3 at 1 mg/kg.

[6] = test system: DoHH-2 follicular B-cell lymphoma subcutaneous model; assay: In vivo efficacy of hBU12 conjugates in lymphoma xenograft model; set-up: species or system mouse; details: FIG. 16, q4d×4 at 3 mg/kg, SCID mice
Experimental: The efficacies of Auristatin-Dipeptide hBU12 conjugates with the aryl and alkyl-maleimide Stretcher units were evaluated in a DoHH-2 follicular B-cell lymphoma subcutaneous model. Auristatin-Dipeptide-hBU12 conjugates with average of 4 drug moieties per antibody were used. DoHH-2 cells were implanted subcutaneously into immunodeficient SCID mice (5×10^6 cells per mouse). […] Treatment was initiated when average size of tumors reached 100 mm^3; the treatment schedule was q4d×4 at 3 mg/kg.

[7] = test system: CD30+, CD19+, LIV-1 positive and Le^y positive cells; assay: In vitro activity of conjugates with cAC10, hBU12, anti-LIV-1 and BR96, overall statements; format: cell-based; details: conjugates with cAC10, hBU12, Anti-LIV-1, BR96; Table 11
Experimental: as §1

[8] = Table 4, h1F6 conjugates, ~4 drugs/Ab
[9] = Table 5, h1F6 conjugates, ~4 drugs/Ab
[10] = Table 10, h1F6-Drug(4) conjugates, aryl or alkyl maleimides

Compound	IC50 SKOV-3 (SKOV-3)	IC50 MCF-7 (MCF-7)	IC50 L540cy (L540cy)	IC50 Karpas 299 (Karpas 299)	IC50 Ramos (Ramos)	IC50 SUDHL-4 (SUDHL-4)	IC50 ARH-77 (ARH-77)	IC50 RCA (RCA)	IC50 H3396 (H3396)	IC50 L2987 (L2987)	IC50 L428 (L428 [1])	IC50 786-O (786-O; [9])	IC50 786-O (786-O; [10])	IC50 Caki-2 (Caki-2; [9])	IC50 Caki-2 (Caki-2; [10])	IC50 L428 (L428 [4]; [9])	IC50 L428 (L428 [4]; [10])	IC50 Caki-1 (Caki-1; [9])	IC50 Caki-1 (Caki-1; [10])	IC50 HCT-116 (CD70−) (HCT-116 (CD70−); Table 5, ~4 drugs/Ab)	further results
CC[C@H](C)[C@@H]([C@@H](CC(=O)N1CCC[C@H]1[C@H](OC)[C@@H](C)C(=O)N[C@@H](Cc1ccccc1)C(=O)O)OC)N(C)C(=O)[C@@H](NC(=O)[C@H](C(C)C)N(C)C(=O)CCCCCN1C(=O)C=CC1=O)C(C)C [MC-MMAP, Maleimidocaproyl-monomethylauristatin F, reference compound] ({Hexanoyl(6-maleimido)}-[NMeV]V[Dil][Dolaproine]F-OH)	2450 ng/mL (≈ 2.65 µM)	3 ng/mL (≈ 0.00324 µM)	0.007 µg/mL (≈ 0.00757 µM)	0.003 µg/mL (≈ 0.00324 µM)	7 ng/mL (≈ 0.00757 µM)	~10,000 ng/mL	255 ng/mL (≈ 0.276 µM)	7.4 µg/mL (≈ 8 µM)	0.042 µg/mL (≈ 0.0454 µM)	0.626 µg/mL (≈ 0.677 µM)	1 ng/mL (≈ 0.00108 µM)										
AF-Proline-(D)Lysine-diaminoethane-propionyl maleimide [AF-Pro-(D)Lys]																					in vivo efficacy, tumor volume (in words) [2]: inactive; in vitro activity on CD70+ cells (in words) [3]: largely inactive; IC50 L428 (L428 [4]; [8]): >10,000 ng/mL; IC50 Caki-1 (Caki-1; [8]): >10,000 ng/mL; IC50 U251 (U251): 5.012 µg/mL; IC50 HCT-116 (CD70−) (HCT-116 (CD70−); Table 4, ~4 drugs/Ab): >1 µg/mL
AM-Asparagine-(D)Lysine-diaminoethane-propionyl maleimide [AM-Asn-(D)Lys]	7600 ng/mL	24 ng/mL	0.031 µg/mL	0.011 µg/mL	1 ng/mL	>10,000 ng/mL	49 ng/mL	8.362 µg/mL	0.037 µg/mL	0.506 µg/mL	0.6 ng/mL	0.02 µg/mL	0.018 µg/mL	0.047 µg/mL	0.026 µg/mL	26 ng/mL	29 ng/mL	20 ng/mL	16 ng/mL	>1 µg/mL	in vivo efficacy, tumor volume (in words) [5]: more potent than corresponding AW-Met-(D)Lys conjugates; in vivo efficacy, tumor volume (in words) [6]: more potent than corresponding AW-Met-(D)Lys conjugates
AW-Methionine-(D)Lysine-diaminoethane-propionyl maleimide [AW-Met-(D)Lys]	>10,000 ng/mL	>10,000 ng/mL	0.017 µg/mL	0.011 µg/mL	>10,000 ng/mL	>10,000 ng/mL	>10,000 ng/mL	5.217 µg/mL	0.146 µg/mL	0.422 µg/mL	~10,000 ng/mL	0.02 µg/mL	0.017 µg/mL	0.037 µg/mL	0.018 µg/mL	>1000 ng/mL	>1000 ng/mL	22 ng/mL	19 ng/mL	>1 µg/mL	in vitro potency (in words) [7]: less active
